Laboratory results taken from patent publication US11701361B2, “p110-delta inhibitors treat and prevent autoimmunity while sparing the ability to mount an immune response to exogenous immunogens” (THE REGENTS OF THE UNIVERSITY OF COLORADO, priority 2018, dated 2023).

What was measured:
[1] = system: AKT; assay: phosphorylated signaling intermediaries after BCR stimulation: AKT; format: cell-based, mouse; details: all doses of inhibitor (15, 60, 490 nM), preincubation
Description: Cells are then washed 2× in serum free IMDM, and stimulated with 5 μg/ml of F(ab′)2 rabbit anti-mouse anti-IgG (H&L; Invitrogen) or 10 μg/ml anti-CD3-biotin (BD Biosciences)+20 μg/ml streptavidin (Sigma-Aldrich) for 2 minutes. Signaling was stopped by addition of 20% PFA to a final concentration of 2%, incubated at 37° C. for 15 minutes and resuspended in 100% ice-cold MeOH (directly from −80° C.). Cells were then placed on ice for 30 minutes and placed at −20° C. for storage. For analysis, cells were stained with B220-BV786, CD4-BV711, CD8-BV421, and/or pAKT-Alexa Fluor 647 (BD Biosciences), pPLCγ-PE (BD Biosciences), pBTK-BV421 (BD Biosciences) pSyk/Zap70-PE (BD Biosciences) at room temperature for 1 hour. Cells were washed 3 times and samples were acquired in triplicate on an LSR Fortessa X-20 (BD) with analysis using FlowJo software.

[2] = system: CD4 T cells; assay: calcium mobilization of CD4 T cells after TCR aggregation; format: cell-based, mouse; details: 15 nM idelalisib, biotin-anti-CD3 and avidin
Description: For measurements of intracellular free calcium concentration ([Ca^2+]i), RBC-depleted single-cell suspended splenocytes were simultaneously stained with CD8-PE (BD Biosciences), CD4-APC (BioLegend) or B220-PE and loaded with Indo-1 acetoxymethyl (Molecular Probes), as described previously (Gauld, et al., Nat Immunol 6: 1160-1167). For analysis of ([Ca^2+]i), cells were suspended at 10×10^6 cells/ml in warm IMDM+2% FBS in a 500 ul volume. […] Mean relative ([Ca^2+]i) was monitored over time using an LSR Fortessa X-20 (BD) with analysis using FlowJo software.
Because a therapeutic effect of the inhibitor on VH125.NOD disease progression and survival was observed, reduction in autoantibody responses in PTEN^−/+×SHIP-1^−/+ cells, yet equivalent autoantibody responses by SHP-1^−/− and MD4 B cells in mice receiving 0.9375 mg/kg idelalisib-containing chow, we chose to focus our analysis on effects of this dose on T cell function. […] To analyze in vivo CD4 T cell responses, OT-II CD4 T cells were adoptively transferred into congenically mismatched recipients and immunized with OVA+P:IC as represented diagrammatically in FIG. 6C. […] The transferred OT-II cells that proliferated most underwent the greatest upregulation of CD44 (FIG. 6D).

[3] = system: OT-II CD4 T cells; assay: OT-II CD4 T cell adoptive transfer, response to OVA+P:IC immunization; format: in vivo, mouse; details: 0.9375 mg/kg chow vs vehicle control, five days post-immunization
Description: 2 hours before adoptive transfer, C57BL/6 recipient mice received 200 rads irradiation. […] B cells from donor mice were isolated via depletion of CD43+ cells with anti-CD43-conjugated magnetic beads (MACS anti-mouse CD43; Miltenyi Biotec). Alternatively, CD4+ T cells were isolated via CD4 positive selection (MACS anti-mouse CD4 (L3T4) Miltenyi Biotec). Resultant populations were >97% pure based on flow cytometric analyses. Donor B cells were labeled with either CellTrace Violet (Molecular Probes) or CFSE (Molecular Probes) at 5 μM for 5 minutes at room temperature prior to transfer. Donor CD4 T cells were labeled with CFSE (Molecular Probes) at 5 μM for 5 minutes at room temperature prior to transfer. 1-2×10^6 donor cells in 200 μl PBS were adoptively transferred via IV injection. 24 hours post transfer, tamoxifen was administered to activate Cre. Tamoxifen (Sigma-Aldrich) was dissolved in 100% corn oil (Sigma-Aldrich) at 20 mg/ml. Recipient mice were injected IP with 100 μl (2 mg) on two consecutive days.
Diet dose (DD) is calculated by multiplying the single daily dose (SD) by the body weight of a mouse (BW) and dividing that by the daily food intake (FI) [DD=(SD×BW)/FI].
For VH125.NOD experiments animals are placed on control chow immediately after weaning. […]

## CC[C@H](Nc1ncnc2nc[nH]c12)c1nc2cccc(F)c2c(=O)n1-c1ccccc1 [idelalisib, 5-fluoro-3-phenyl-2-[(1S)-1-(7H-purin-6-ylamino)propyl]-4(3H)-quinazolinone]
[1]
  phosphorylation of AKT: significantly reduced
[2]
  calcium mobilization of CD4 T cells: failed to inhibit
[3]
  proliferation (CFSE) of OT-II T cells: equivalent levels
  upregulation of the activation marker CD44 on OT-II T cells: equivalent levels
